Results as given in US20240174744A1, “METHODS OF TREATMENT USING PROTEIN BINDERS TO IRHOM2 EPITOPES” (SCIRHOM GMBH, priority 2021, published 2024).

System: PMA-induced release of IL-6R from PBMCs from healthy donors
Experiment: ELISA-based IL-6R release assay, PBMCs from healthy donors
Format: cell-based
Details: Homo sapiens, PBMC; recombinant murine antibodies 1 μg/ml; Batimastat 10 μM; PMA 25 ng/ml, 6 hours
Experimental: In the following study, ELISA-based IL-6R release assays were performed to analyze the inhibitory effects of the antibodies of the present disclosure on PMA-induced release of endogenous IL-6R from primary human material obtained from healthy donors using peripheral blood mononuclear cells (PBMCs).
In brief, on day 1, Nunc black MaxiSorp® 96-well plates (Thermo Fisher Scientific, USA) were coated overnight with 100 μl per well of mouse anti-human IL-6R capture antibody (provided as part of the DuoSet ELISA kit) at 4 μg/ml TBS at 4° C. On day 2, the capture antibody solution was removed and MaxiSorp® plates were blocked with 300 μl per well of TBS, 1% BSA at room temperature for 3 hours. […] Using an infinite M1000 (Tecan Group, Switzerland) microplate reader, the fluorescence of each well was collected at an excitation wavelength of 435 nm and an emission wavelength of 555 nm.

SMILES: CNC(=O)[C@H](Cc1ccccc1)NC(=O)[C@H](CC(C)C)[C@H](CSc1cccs1)C(=O)NO [Batimastat]
- inhibition at 10 µM: 114%
